{
  "source": "patent US20090092550A1",
  "about": "“PORPHYRIN LINKED METRONIDAZOLE AGAINST GUM DISEASE: PORPHYROMONAS GINGIVALIS” (The University of Sydney, priority 2004, published 2009)",
  "key": {"[1]": {"tested_on": "P. gingivalis ATCC 33277 cells", "test": "Growth inhibition assay, turbidity (optical density) over 72 h", "format": "cell-based, Porphyromonas gingivalis", "experimental": "The mono-adducts 20 and 21 and metronidazole were tested on the targeted organism, P. gingivalis with the standard controls to compare the potency of the mono-adducts 20 and 21 compared to metronidazole towards the targeted organism. In a 96-well polystyrene plate divided into four sections, a series of dilutions of the mixture of the mono-adducts 20 and 21, metronidazole, DPIX 5 and DMSO were made up. These were transferred into test-tubes in quadruplicate and the P. gingivalis cells were added in triplicate leaving one test-tube as a blank control free of P. gingivalis cells. The growth of the P. gingivalis cells were monitored over 3 days (72 h) and growth was noted by the turbidity of the medium and recorded as the optical density.\nThe growth inhibition assays show differences in growth responses to metronidazole and the mixture of the mono-adducts 20 and 21.\n(§1) Bovine hemoglobin (Hb), Hb-agarose beads, hemin (Hm) and Hm-agarose beads were supplied by Sigma-Aldrich Company. The translated product of a synthetic HA2 gene, derived from the sequence of RgpA, was expressed in E. coli with a C-terminal polyhistidine tag (International Patent Application No. WO 2002061091) and is referred to as rHA2. rHA2 was functionally purified by Hb-agarose affinity chromatography. Anti-gingipain monoclonal antibody (mAb) 5A1 was prepared in mice. Secondary goat anti-mouse antibody conjugated with alkaline phosphatase (AP) was supplied by Dako Corporation. 4-nitrophenylphosphate (p-NPP) was supplied by Boehringer. P. gingivalis ATCC 33277 cells was used in all growth assays and cultures were anaerobically grown at 37° C. in an atmosphere containing CO2 (5%), H2 (10%) and N2 (85%). P. gingivalis and P. melaminogenica cells were grown in Center for Disease Control (CDC) medium and F. nucleatum cells were grown in Brain Heart Infusion (BHI) medium.\nCultivation and biological testing were carried out on P. gingivalis ATCC 33277 cells and the cultures were anaerobically grown at 37° C. in an atmosphere containing CO2 (5%), H2 (10%) and N2 (85%). The cultures were inoculated with heme, menadione and either DMSO, DPIX 5, metronidazole, DPIX 5+ metronidazole or adduct 20 and 21. In a 96-well polystyrene plate divided into four sections, a series of dilutions of the mixture of the mono-adducts 20 and 21, metronidazole, DPIX 5 and DMSO were made up. These were transferred into test-tubes in quadruplicate and the P. gingivalis cells were added in triplicate leaving one test-tube as a blank control free of P. gingivalis cells. The growth of the P. gingivalis cells were monitored over 3 days (72 h) and growth was noted by the turbidity of the medium and recorded as the optical density."}, "P. melaminogenica": {"tested_on": "P. melaminogenica", "test": "Growth inhibition assay on a related organism", "format": "cell-based, Prevotella melaminogenica", "conditions": "20 μM, over 72 h (FIG. 7B)", "experimental": "as §1"}, "F. nucleatum": {"tested_on": "F. nucleatum", "test": "Growth inhibition assay on an unrelated organism", "format": "cell-based, Fusobacterium nucleatum", "conditions": "20 μM, over 72 h (FIG. 7C)", "experimental": "As it is useful to test the mono-adducts 20 and 21 on non-related bacteria as well, as there is a large and complex community of bacteria present in the gingival crevice causing periodontal diseases, the mono-adducts 20 and 21 were also tested on the unrelated organism F. nucleatum.\nas §1"}, "[2]": {"tested_on": "P. gingivalis ATCC 33277 cells", "conditions": "literature (Poulet et al. 1999; Mitchell 1984); cited from earlier work"}, "[3]": {"target": "HA2 domain (rHA2, derived from the sequence of RgpA)", "test": "ELISA binding of plate-coated porphyrin to rHA2", "design": "species or system Porphyromonas gingivalis", "conditions": "FIG. 5, mean of three similar KD50s, read-out: KD50 to HA2", "experimental": "The KD50 of the mono-adducts 20 and 21 to HA2 was established using Enzyme-Linked ImmunoSorbent Assay (ELISA), whereby a 96-well polystyrene plate was coated with either the mono-adducts 20 and 21 or hemin in an alkaline coating buffer at pH 9.0. The plates were then washed and blocked for 30 min with a phosphate buffered saline solution containing Tween-20, a […] detergent to prevent any non-specific binding. Dilutions of HA2 in a slightly acidic acetate buffer at pH 5.5 were then titrated down the rows of the 96-well plate and the plate was incubated in an IR Sensor CO2 incubator at 37° C. for 1.5 h to allow binding of either the mono-adducts 20 and 21 or hemin to HA2. […] A secondary goat anti-mouse antibody conjugated with alkaline phosphatase (AP) was then added to detect the primary antibody and the binding of either the mono-adducts 20 and 21 or hemin to HA2 was recorded as optical density on a Bio-rad Microplate reader as the amount of dephosphorylation of the substrate para-nitrophenolphosphate to para-nitrophenol catalyzed by AP. […]\nThe mixture of mono-metronidazole-substituted adducts 20 and 21 and heme (both at 5 μg/ml) were coated on the plastic well surfaces of a 96-well plate in coating buffer at pH 9.0. […] Apparent dissociation constants were calculated from best-fit KD50 binding curves."}, "[4]": {"target": "HA2 domain (rHA2, derived from the sequence of RgpA)", "conditions": "known value for the standard; read-out: binding dissociation constant to HA2; cited from earlier work"}},
  "note": "Where two headings read alike, the source gives them in different places.",
  "data": [
    {"compound": "Cc1ncc([N+](=O)[O-])n1CCO", "note": "[metronidazole]", "values": [
      {"measurement": "growth suppression of P. gingivalis", "setting": "[1]; 0.5 μM, over 72 h (FIG. 6E)", "result": "no effect of growth suppression"},
      {"measurement": "time after which activity is lost and P. gingivalis growth recovers", "setting": "[1]; 1 μM (FIG. 6D)", "result": "approximately 50 h"},
      {"measurement": "growth inhibition of P. gingivalis", "setting": "[1]; 4 μM, over 72 h (FIG. 6B)", "result": "complete inhibition"},
      {"measurement": "growth inhibition of P. gingivalis", "setting": "[1]; 20 μM, over 72 h (FIG. 6A, FIG. 7A)", "result": "complete inhibition of growth"},
      {"measurement": "growth suppression of P. gingivalis", "setting": "[1]; 2 KM, over 72 h (FIG. 6C)", "result": "completely supresses growth"},
      {"measurement": "MIC", "setting": "[1]; Porphyromonas gingivalis, ATCC33277, P. gingivalis, approximate, from FIG. 6, read-out: Minimum Inhibitory Concentration (MIC)", "result": "1 to 2", "unit": "µM"},
      {"measurement": "growth inhibition of P. melaminogenica", "setting": "P. melaminogenica", "result": "complete suppression of growth"},
      {"measurement": "growth inhibition of F. nucleatum", "setting": "F. nucleatum", "result": "complete inhibition"},
      {"measurement": "activity against P. gingivalis", "setting": "[2]", "result": "excellent activity"}
    ]},
    {"compound": "hemin", "values": [
      {"measurement": "Kd", "setting": "[3]", "result": 15, "unit": "nM"},
      {"measurement": "Kd", "setting": "[4]", "result": "~15", "unit": "nM"}
    ]}
  ]
}
